Data reported in patent US20260242789A1 (priority 2023, published 2026).
Where a name gives a salt, the structure may show the parent alone. Read-outs that look alike come from different tables or passages of the source.

Experiments:
[1] = target: T1, SAMD9^134-385 protein (SAMD9 tRNase) (Homo sapiens, UniProt Q5K651); assay: biochemical
T1 construct: The recombinant SAMD9^134-385 or SAMD9^156-385 protein was expressed and purified from E. coli; SUMO (cleaved yes); 6xHis (cleaved yes); made in house; host or cells: E. coli
T1 sequence (Q5K651 134-385): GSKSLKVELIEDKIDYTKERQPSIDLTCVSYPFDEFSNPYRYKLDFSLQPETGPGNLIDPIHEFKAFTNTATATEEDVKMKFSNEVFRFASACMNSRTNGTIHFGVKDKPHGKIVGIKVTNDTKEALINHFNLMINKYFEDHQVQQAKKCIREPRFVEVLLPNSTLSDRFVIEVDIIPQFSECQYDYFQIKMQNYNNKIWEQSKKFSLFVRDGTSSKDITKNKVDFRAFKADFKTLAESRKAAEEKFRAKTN

[2] = target: T1, SAMD9^134-385 protein (SAMD9 tRNase); type: biochemical; conditions: at 2×IC50 concentration, two hours of reaction
[3] = target: T2, SAMD9 tRNase:tRNA complex (Homo sapiens, UniProt Q5K651); type: binding
T2 construct: The recombinant SAMD9^134-385 or SAMD9^156-385 protein was expressed and purified from E. coli; SUMO (cleaved yes); 6xHis (cleaved yes); made in house; host or cells: E. coli
T2 sequence (Q5K651 134-385): T1 sequence (Q5K651 134-385)

Compound | IC50 [1] [µM] | cleavage of yeast tRNA by SAMD9 tRNase [2] | disruption of the SAMD9 tRNase:tRNA complex ([3]; 2:1 molar ratio) | disruption of the SAMD9 tRNase:tRNA complex ([3]; 20:1 molar ratio) | IC50 ([1]; dose response studies, cleavage of Phe17-Fret by SAMD9 tRNase, read-out: IC50) [µM] | disruption of the SAMD9 tRNase:tRNA complex ([3]; 100:1 molar ratio)
Cc1cc(-c2ccc(/N=N/c3ccc4c(S(=O)(=O)O)cc(S(=O)(=O)O)c(N)c4c3O)c(C)c2)ccc1/N=N/c1ccc2c(S(=O)(=O)O)cc(S(=O)(=O)O)c(N)c2c1O [Evans Blue] | 1.2 | blocked | disrupted the complex | completely disrupted | – | –
NCCOc1cc(C(=O)Nc2cc(OCCN)c3ccccc3n2)nc(C(=O)Nc2cc(OCCN)c3ccccc3n2)c1 [Pyridostatin TFA] | 7.8 | partially reduced | – | – | – | –
Salvianolic acid B | – | blocked | – | minor effect | 3 | did not completely disrupt
